# Biological target: T1, β-glucocerebrosidase (Homo sapiens, UniProt P04062, L483P)
# T1 construct: host or cells: human Gaucher disease patient fibroblasts GM08760A
# T1 sequence (P04062 40-536 L483P): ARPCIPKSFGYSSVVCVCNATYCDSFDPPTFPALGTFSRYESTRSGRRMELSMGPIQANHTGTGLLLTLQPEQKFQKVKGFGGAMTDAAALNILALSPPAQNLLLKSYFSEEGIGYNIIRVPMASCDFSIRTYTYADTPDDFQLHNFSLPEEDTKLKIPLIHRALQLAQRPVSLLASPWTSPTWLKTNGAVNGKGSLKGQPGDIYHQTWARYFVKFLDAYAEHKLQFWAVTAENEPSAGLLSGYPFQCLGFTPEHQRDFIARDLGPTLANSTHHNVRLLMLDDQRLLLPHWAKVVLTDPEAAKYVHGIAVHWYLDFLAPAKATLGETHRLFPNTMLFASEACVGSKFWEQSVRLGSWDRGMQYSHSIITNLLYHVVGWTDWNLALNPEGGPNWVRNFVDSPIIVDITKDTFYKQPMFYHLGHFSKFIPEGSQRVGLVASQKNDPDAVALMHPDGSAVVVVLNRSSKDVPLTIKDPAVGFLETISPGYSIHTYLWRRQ
# Test: Enhancement of β-glucocerebrosidase activity measured in Gaucher disease fibroblasts (4-MU-β-D-glucopyranoside substrate, intact cells)
# Type: cell-based
# Parameters: key: Increase in comparison with non-treated of >2.0 fold is shown as A; Increase in comparison with non-treated of >1.7-2.0 fold is shown as B; Increase in comparison with non-treated of 1.2-1.7 fold is shown as C; D means that no increase compared with non-treated cells was detected in this method
# Details: GBA fibroblasts bearing L444P (GM08760A, homozygous p.L444P); compound at concentrations between 6 and 50 μM; 4 days incubation
# In short: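 Patient fibroblasts homozygous for p.L444P (GM08760A), grown in DMEM/10% FBS and exposed to compound for 4 days. Intact cells then given 4-MU-β-D-glucopyranoside in 0.1 M acetate pH 4, 1 h, 37 °C; stopped at pH 10.7, 4-MU fluorescence ex 340/em 460. Value is fold increase over untreated cells; binned at 6–50 μM.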
Structure (SMILES),Range: increase in enzyme activity in comparison with non-treated cells (Enzyme activity assay for compounds of Examples 33-141),Range: increase in enzyme activity in comparison with non-treated cells (Enzyme activity assay for exemplified compounds)
"CN(C(=O)c1cc(N)cc(Nc2ccccc2F)n1)c1ccccc1 [Example 114, 4-Amino-6-((2-fluorophenyl)amino)-N-methyl-N-phenylpicolinamide]",D,–
"Cc1ccc(Nc2cc(N)nc(C(=O)Nc3ccccc3)c2)c(O)c1 [Example 77, 6-Amino-4-((2-hydroxy-4-methylphenyl)amino)-N-phenylpicolinamide]",C (Increase in comparison with non-treated of 1.2-1.7 fold is shown as C),–
"Nc1nc(Nc2cccc(Br)c2)nc(C(=O)N2CCN(c3ccccc3)CC2)n1 [Example 16, (4-Amino-6-((3-bromophenyl)amino)-1,3,5-triazin-2-yl)(4-phenylpiperazin-1-yl)methanone]",–,C (Increase in comparison with non-treated of 1.2-1.7 fold is shown as C)
"Nc1cc(C(=O)NC2CCc3ccccc3C2)nc(Nc2ccccc2O)n1 (stereo not drawn) [Example 12, 6-Amino-2-((2-hydroxyphenyl)amino)-N-(1,2,3,4-tetrahydronaphthalen-2-yl)pyrimidine-4-carboxamide]",–,B (Increase in comparison with non-treated of >1.7-2.0 fold is shown as B)
"CN(Cc1ccccc1)C(=O)c1cc(N)nc(Nc2ccccc2O)n1 [Example 4, 6-Amino-N-benzyl-2-((2-hydroxyphenyl)amino)-N-methylpyrimidine-4-carboxamide]",–,C (Increase in comparison with non-treated of 1.2-1.7 fold is shown as C)
"Nc1cc(C(=O)NC2CCc3ccccc3C2)cc(Nc2ccccc2O)n1 (stereo not drawn) [Example 45, 2-Amino-6-((2-hydroxyphenyl)amino)-N-(1,2,3,4-tetrahydronaphthalen-2-yl)isonicotinamide]",C (Increase in comparison with non-treated of 1.2-1.7 fold is shown as C),–
"Nc1cc(Nc2cc(F)cc(F)c2)nc(C(=O)NC2Cc3ccccc3C2)c1 [Example 109, 4-Amino-6-((3,5-difluorophenyl)amino)-N-(2,3-dihydro-1H-inden-2-yl)picolinamide]",A (Increase in comparison with non-treated of >2.0 fold is shown as A),–
"COc1cccc(Nc2nc(N)cc(C(=O)N3Cc4ccccc4C3)n2)c1 [Example 38, (6-Amino-2-((3-methoxyphenyl)amino)pyrimidin-4-yl)(isoindolin-2-yl)methanone]",D,–
"CN(C(=O)c1cc(N)cc(Nc2ccccc2O)n1)C1Cc2ccccc2C1.Cl [Example 131, 4-Amino-N-(2,3-dihydro-1H-inden-2-yl)-6-((2-hydroxyphenyl)amino)-N-methyl-picolinamide hydrochloride]",C (Increase in comparison with non-treated of 1.2-1.7 fold is shown as C),–
"Nc1cc(Nc2ccccc2O)cc(C(=O)NC2Cc3ccccc3C2)n1 [Example 67, 6-Amino-N-(2,3-dihydro-1H-inden-2-yl)-4-((2-hydroxyphenyl)amino)picolinamide]",B (Increase in comparison with non-treated of >1.7-2.0 fold is shown as B),–
"Nc1cc(Nc2ccccn2)cc(C(=O)Nc2ccccc2)n1 [Example 79, 6-Amino-N-phenyl-4-(pyridin-2-ylamino)pyridine-2-carboxamide]",C (Increase in comparison with non-treated of 1.2-1.7 fold is shown as C),–
"Nc1cc(C(=O)N2CCN(c3ccccc3)CC2)nc(Nc2ccccc2O)n1 [Example 1, (6-Amino-2-((2-hydroxyphenyl)amino)pyrimidin-4-yl)(4-phenylpiperazin-1-yl)methanone]",–,C (Increase in comparison with non-treated of 1.2-1.7 fold is shown as C)
"CN(C(=O)c1cc(Nc2ccccc2O)cc(N)n1)c1ccccc1 [Example 128, 6-Amino-4-((2-hydroxyphenyl)amino)-N-methyl-N-phenylpicolinamide]",C (Increase in comparison with non-treated of 1.2-1.7 fold is shown as C),–
"Nc1cc(Nc2ccc(F)cc2O)cc(C(=O)NC2Cc3ccccc3C2)n1 [Example 69, 6-Amino-N-(2,3-dihydro-1H-inden-2-yl)-4-((4-fluoro-2-hydroxyphenyl)amino)picolinamide]",B (Increase in comparison with non-treated of >1.7-2.0 fold is shown as B),–
"Nc1nc(Nc2ccccc2O)cc(C(=O)NC2Cc3ccccc3C2)n1 [Example 81, 2-amino-N-(2,3-dihydro-1H-inden-2-yl)-6-((2-hydroxyphenyl)amino)pyrimidine-4-carboxamide]",B (Increase in comparison with non-treated of >1.7-2.0 fold is shown as B),–
"Nc1cc(Nc2ccccc2F)cc(C(=O)NC2Cc3ccccc3C2)n1 [Example 70, 6-Amino-N-(2,3-dihydro-1H-inden-2-yl)-4-((2-fluorophenyl)amino)picolinamide]",D,–
"COc1ccccc1Nc1cc(N)nc(C(=O)NC2CCc3ccccc3C2)c1 (stereo not drawn) [Example 52, 6-Amino-4-((2-methoxyphenyl)amino)-N-(1,2,3,4-tetrahydronaphthalen-2-yl)picolinamide]",B (Increase in comparison with non-treated of >1.7-2.0 fold is shown as B),–
"Cc1ccc(Nc2nc(N)cc(C(=O)N(C)c3ccccc3)n2)cc1 [Example 6, 6-Amino-N-methyl-N-phenyl-2-(p-tolylamino)pyrimidine-4-carboxamide]",–,D
"CN(C(=O)c1cc(N)nc(Nc2ccccc2O)c1)c1ccccc1 [Example 43, 2-Amino-6-((2-hydroxyphenyl)amino)-N-methyl-N-phenylisonicotinamide]",C (Increase in comparison with non-treated of 1.2-1.7 fold is shown as C),–
"Nc1cc(C(=O)N2CCc3ccccc32)nc(Nc2ccccc2O)n1 [Example 37, (6-Amino-2-((2-hydroxyphenyl)amino)pyrimidin-4-yl)(indolin-1-yl)methanone]",D,–
"Cc1c(F)cccc1Nc1cc(N)cc(C(=O)NC2Cc3ccccc3C2)n1 [Example 108, 4-Amino-N-(2,3-dihydro-1H-inden-2-yl)-6-((3-fluoro-2-methylphenyl)amino)picolinamide]",B (Increase in comparison with non-treated of >1.7-2.0 fold is shown as B),–
"Nc1nc(Nc2ccccc2O)nc2c1CCN(Cc1ccccc1)C2 [Example 29, 2-((4-Amino-7-benzyl-5,6,7,8-tetrahydropyrido[3,4-d]pyrimidin-2-yl)amino)phenol]",–,B (Increase in comparison with non-treated of >1.7-2.0 fold is shown as B)
"Nc1cc(Nc2ccccc2O)cc(C(=O)N2Cc3ccccc3C2)n1 [Example 58, (6-Amino-4-((2-hydroxyphenyl)amino)pyridin-2-yl)(isoindolin-2-yl)methanone]",B (Increase in comparison with non-treated of >1.7-2.0 fold is shown as B),–
"COc1ccc(Nc2nc(N)c3c(n2)CN(Cc2ccccc2)CC3)cc1 [Example 30, 7-Benzyl-N2-(4-methoxyphenyl)-5,6,7,8-tetrahydropyrido[3,4-d]pyrimidine-2,4-diamine]",–,C (Increase in comparison with non-treated of 1.2-1.7 fold is shown as C)
"Nc1cc(Nc2ccccc2Cl)nc(C(=O)NC2Cc3ccccc3C2)c1 [Example 101, 4-Amino-6-((2-chlorophenyl)amino)-N-(2,3-dihydro-1H-inden-2-yl)picolinamide]",B (Increase in comparison with non-treated of >1.7-2.0 fold is shown as B),–
"Nc1cc(Nc2cccc3c2OCO3)nc(C(=O)Nc2ccccc2)c1 [Example 94, 4-Amino-6-(benzo[d][1,3]dioxol-4-ylamino)-N-phenylpicolinamide]",B (Increase in comparison with non-treated of >1.7-2.0 fold is shown as B),–
"Nc1cc(C(=O)N2CCN(c3ccccc3)CC2)nc(N[C@H]2CCCC[C@@H]2O)n1 [Example 14, (6-Amino-2-(((1S,2S)-2-hydroxycyclohexyl)amino)pyrimidin-4-yl)(4-phenylpiperazin-1-yl)methanone]",–,D

# — patent publication US12661342B2, “Heteroaryl compounds and therapeutic uses thereof in conditions associated with the alteration of the activity of beta-glucocerebrosidase” (GT GAIN THERAPEUTICS SA, priority 2019, dated 2026)
